test system: Nephotettix cincticeps; experiment: Insecticidal activity against Nephotettix cincticeps (green rice leafhopper) in compound treated germinated rice seedlings assessed as mortality measured after 5 days; assay type: functional

`O=[N+]([O-])/C=C1\NCCN1Cc1cccs1` and `O=[N+]([O-])/C=C1\NCCN1Cc1ccco1` are the same in LC90: 200 ppm for the first, 200 ppm for the second.

Compared with `O=[N+]([O-])/C=C1\NCCN1Cc1ccc(Br)s1`, `Cc1ncc(CN2CCN/C2=C\[N+](=O)[O-])s1` is lower in LC90: 40 ppm for the first, 1.6 ppm for the second.

Compared with `O=[N+]([O-])/C=C1\NCCN1Cc1cccnc1`, `O=[N+]([O-])/C=C1\NCCN1Cc1ccccc1` is higher in LC90: 8 ppm for the first, 200 ppm for the second.

`O=[N+]([O-])/N=C1\NCCN1Cc1cnc(Cl)s1` [IMIDACLOTHIZ] and `O=[N+]([O-])/C=C1\NCCN1Cc1cnc(Cl)s1` are the same in LC90: 0.32 ppm for the first, 0.32 ppm for the second.

First: O=[N+]([O-])/C=C1\NCCN1Cc1ccc[nH]1
Second: O=[N+]([O-])/C=C1\NCCN1Cc1ccc(Cl)nc1
The LC90 of the first is higher: 200 ppm for the first, 0.32 ppm for the second.

First: O=[N+]([O-])/N=C1\NCCN1Cc1ccc(Cl)nc1 [IMIDACLOPRID]
Second: Cn1cc(CN2CCN/C2=C\[N+](=O)[O-])cn1
The LC90 of the first is lower: 0.32 ppm for the first, 1.6 ppm for the second.

Compared with `O=[N+]([O-])/C=C1\NCCN1Cc1cncs1`, `O=[N+]([O-])/C=C1\NCCN1Cc1csc(Cl)n1` is higher in LC90: 8 ppm for the first, 200 ppm for the second.

`Cc1cc(CN2CCN/C2=C\[N+](=O)[O-])on1` and `O=[N+]([O-])/C=C1\NCCN1Cc1cc(Br)no1` are the same in LC90: 1.6 ppm for the first, 1.6 ppm for the second.
